Assays:
CXCR1 receptor = CXCR1 receptor (Homo sapiens (Human), UniProt P25024); experiment: β-arrestin recruitment test, U2OS hCXCR1 β-arrestin cells stimulated with CXCL8; format: cell-based; conditions: inhibition of CXCL8 (10 nM) induced β-arrestin 2 recruitment; *9999 signifies not active
Experimental: (§1) The in vitro affinity of the compounds of the present invention for the CXCR1 and CXCR2 receptors was determined on a functional test of the β-arrestin recruitment after receptor activation type.
(§2) β-Arrestin recruitment test: “PathHunter HEK293-CXCR2” or “U2OS hCXCR1 β-arrestin” cells (DiscoveRx Corporation) were seeded overnight at 10 000 cells/well (384-well format) in 20 μl of Opti MEM I medium. A preincubation with the antagonist or the vehicle for 30 min at 37° C. and 5% CO2 was followed by 60 minutes of stimulation with CXCL8 at 37° C. and 5% CO2. The cells were then placed at ambient temperature for 30 minutes. The PathHunter detection reagent (DiscoveRx Corporation) was added. […] The data were analyzed by means of a non-linear curve procedure using the XLFit4 exploitation software (IDBS) and the IC50 values were determined.

CXCR2 receptor = CXCR2 receptor (Homo sapiens (Human), UniProt P25025); experiment: β-arrestin recruitment test, PathHunter HEK293-CXCR2 cells stimulated with CXCL8; format: cell-based; conditions: inhibition of CXCL8 (10 nM) induced β-arrestin 2 recruitment; *9999 signifies not active
Experimental: as §1, §2

[1] = Metabolic stabilities in hepatocytes; format: in vitro ADME; conditions: compound 1 μM, sampling up to 24 hours; for half-life at 1 μM: human, hepatocytes, read-out: Half-life time; for Half-life time: human hepatocytes
Experimental: The human hepatocytes were supplied by Biopredic in 24-well plates.
The samples of incubation medium after addition of the test compound were taken at times t=0, 1, 2, 4, 6 and 24 hours.

[2] = Metabolic stabilities in hepatic microsomes; conditions: hepatic microsomes 0.5 mg/ml protein, compound 1 μM, sampling up to 60 minutes
Experimental: Hepatic microsomes (Becton Dickinson) were incubated at a protein concentration of 0.5 mg/ml in the reaction medium.
The reaction medium of the microsomes was composed of phosphate buffer, pH: 7.4 at 100 mM, of MgCl2 at 100 mM (50/50), of an ATP-generating system composed of a mixture of nicotinamide adenine diphosphate (NADP), of glucose-6-phosphate (G6P) at 1 mg/ml and of glucose-6-phosphate dehydrogenase (G6PDH) at 4 U/ml. The compounds were tested at 1 μM (0.1% DMSO).
The samples of incubation medium after addition of the microsomes were taken at times 5, 10, 15, 30 and 60 minutes. At each time, the metabolic reaction was stopped by adding methanol (1 volume incubation medium/3 volumes of methanol). The disappearance of the parent product was measured by LC/MS/MS analysis. The time for which 50% of parent product disappeared (T1/2) was calculated from the kinetics of disappearance of the parent product as a function of time.

CCR4 = CCR4 (Homo sapiens (Human), UniProt P51679); experiment: Calcium flux on Chem-1 cells expressing the chemokine receptor (FLIPR TETRA), antagonist mode
Experimental: (§3) Measurement of calcium flux on cells: The experiments were carried out on the FLIPR TETRA® platform from Molecular Devices.
(§4) Each cell line expressing a chemokine receptor was established on the basis of the Chem-1 cell stably expressing the recombinant form of the chemokine receptor and also an associated G protein, with the aim of coupling the receptor to the calcium signalling pathway.
(§5) 21 receptors belonging to the chemokine receptor family (CCRs and CXCRs) were analyzed.

CXCR3 = CXCR3 (Homo sapiens (Human), UniProt P49682); experiment: as above; conditions: IC50 CXCR3, antagonist activity, reference agonist at AC80
CXCR3, sequence (P49682 whole entry): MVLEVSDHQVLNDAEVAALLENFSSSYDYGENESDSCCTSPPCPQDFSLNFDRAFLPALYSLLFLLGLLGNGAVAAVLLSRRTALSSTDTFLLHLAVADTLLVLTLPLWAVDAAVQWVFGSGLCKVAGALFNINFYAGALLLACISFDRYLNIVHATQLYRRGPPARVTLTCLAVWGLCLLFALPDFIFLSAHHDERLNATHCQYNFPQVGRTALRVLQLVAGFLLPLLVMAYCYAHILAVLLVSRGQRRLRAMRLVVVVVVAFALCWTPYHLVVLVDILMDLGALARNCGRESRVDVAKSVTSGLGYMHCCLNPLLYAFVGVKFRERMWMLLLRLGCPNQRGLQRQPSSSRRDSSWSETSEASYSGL
Experimental: as §3, §4, §5

CXCR1 receptor, sequence (P25024 whole entry): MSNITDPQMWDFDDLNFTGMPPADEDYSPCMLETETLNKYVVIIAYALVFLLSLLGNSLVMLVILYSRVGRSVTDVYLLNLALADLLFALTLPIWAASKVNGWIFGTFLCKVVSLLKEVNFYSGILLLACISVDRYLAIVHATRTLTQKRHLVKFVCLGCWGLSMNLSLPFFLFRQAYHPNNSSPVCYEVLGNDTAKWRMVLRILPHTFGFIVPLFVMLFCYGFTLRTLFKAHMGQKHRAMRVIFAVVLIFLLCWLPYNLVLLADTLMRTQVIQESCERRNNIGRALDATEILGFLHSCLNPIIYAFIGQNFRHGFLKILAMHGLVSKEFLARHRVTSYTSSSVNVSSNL
CXCR2 receptor, sequence (P25025 whole entry): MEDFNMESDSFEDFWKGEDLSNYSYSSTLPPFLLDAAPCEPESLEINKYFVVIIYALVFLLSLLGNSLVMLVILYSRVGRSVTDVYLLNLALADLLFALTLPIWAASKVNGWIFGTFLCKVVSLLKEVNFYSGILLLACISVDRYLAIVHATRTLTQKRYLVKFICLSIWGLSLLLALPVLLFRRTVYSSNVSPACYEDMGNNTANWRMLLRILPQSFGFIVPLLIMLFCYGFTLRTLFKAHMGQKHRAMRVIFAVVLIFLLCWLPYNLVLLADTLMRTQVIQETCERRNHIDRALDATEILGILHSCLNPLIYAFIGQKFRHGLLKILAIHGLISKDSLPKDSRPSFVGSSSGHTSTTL
CCR4, sequence (P51679 whole entry): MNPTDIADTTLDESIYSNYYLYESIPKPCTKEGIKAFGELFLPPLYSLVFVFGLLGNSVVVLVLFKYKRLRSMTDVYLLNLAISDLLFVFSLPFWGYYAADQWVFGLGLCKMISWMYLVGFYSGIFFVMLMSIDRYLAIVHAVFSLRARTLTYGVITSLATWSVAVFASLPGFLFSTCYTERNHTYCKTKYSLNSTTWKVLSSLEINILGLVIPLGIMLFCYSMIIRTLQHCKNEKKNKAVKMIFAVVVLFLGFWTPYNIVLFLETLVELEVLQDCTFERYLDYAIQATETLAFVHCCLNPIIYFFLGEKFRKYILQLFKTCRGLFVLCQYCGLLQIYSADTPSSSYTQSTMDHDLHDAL

| Molecule | IC50 (CXCR1 receptor) [nM] | IC50 (CXCR2 receptor) [nM] | further results |
| --- | --- | --- | --- |
| Cc1ccc(C(Nc2c(Nc3cccc(C(=O)N(C)C)c3O)c(=O)c2=O)[C@@H]2COC(C)(C)O2)o1 (single isomer, unassigned) [Example 14 (Diastereoisomer 1)] | 10000 | 10000 |  |
| COC(=O)CN(C)C(=O)c1cccc(Nc2c(NC(c3ccc(C)o3)C3CCCS3)c(=O)c2=O)c1O (single isomer, unassigned) [9 (Diastereoisomer 1), methyl {[2-hydroxy-3-(2-{[(5-methylfuran-2-yl)-(tetrahydrothiophen-2-yl)methyl]amino}-3,4-dioxocyclobut-1-enylamino)benzoyl]methylamino}acetate] | 580 | 153 |  |
| CCOC(=O)[C@@H]1CCCN1C(=O)c1cccc(Nc2c(NC(c3ccc(C)o3)C3CCCS3)c(=O)c2=O)c1F (stereo partly drawn) [Example 5, Ethyl (S)-1-[2-fluoro-3-(2-{[(5-methylfuran-2-yl)-(tetrahydrothiophen-2-yl)methyl]amino}-3,4-dioxocyclobut-1-enylamino)benzoyl]pyrrolidine-2-carboxylate] | 711 | 106 |  |
| Cc1ccc(C(Nc2c(Nc3cccc(C(=O)N(C)C)c3O)c(=O)c2=O)C2CCCS2)o1 (single isomer, unassigned) [Example 2 (Enantiomer 2 of diastereoisomer 1), 2-Hydroxy-N,N-dimethyl-3-(2-{[(5-methylfuran-2-yl)-(tetrahydrothiophen-2-yl)methyl]amino}-3,4-dioxo-cyclobut-1-enylamino)benzamide] |  | 56 |  |
| Cc1ccc([C@H](Nc2c(Nc3cccc(C(=O)N(C)CC(F)(F)F)c3O)c(=O)c2=O)C2CCCS2)o1 (single isomer, unassigned; (-)) [Example 18] | 36 | 15 | half-life at 1 μM [1]: 1.37 h; half-life at 1 μM ([2]; hepatic microsomes, pH 7.4, Half-life time (min)): 0.25 h; IC50 (CCR4): 97 nM; IC50 (CXCR3): 450 nM |
| COC(=O)CN(C)C(=O)c1cccc(Nc2c(NC(c3ccc(C)o3)C3CCCS3)c(=O)c2=O)c1O (single isomer, unassigned) [Example 9 (Diastereoisomer 2), methyl {[2-hydroxy-3-(2-{[(5-methylfuran-2-yl)-(tetrahydrothiophen-2-yl)methyl]amino}-3,4-dioxocyclobut-1-enylamino)benzoyl]methylamino}acetate] | 89 | 80 |  |
| Cc1ccc(C(Nc2c(Nc3cccc(C(=O)N(C)CC(F)(F)F)c3O)c(=O)c2=O)C2CCCS2)o1 (single isomer, unassigned) [Example 8 (Diastereoisomer 1)] | 508 | 115 |  |
| Cc1ccc(C(Nc2c(Nc3cccc(C(=O)N(C)C)c3O)c(=O)c2=O)[C@H]2CCCO2)o1 (stereo in doubt) [Example 11, 2-hydroxy-N,N-dimethyl-3-(2-{[(R)-(5-methylfuran-2-yl)tetrahydrofuran-2-ylmethyl]amino}-3,4-dioxocyclobut-1-enylamino)benzamide] | 1320 | 176 |  |
| Cc1ccc(C(Nc2c(Nc3cccc(C(=O)N(C)C)c3O)c(=O)c2=O)C2CCCS2)o1 (single isomer, unassigned) [Example 2 (diastereoisomer 1), 2-Hydroxy-N,N-dimethyl-3-(2-{[(5-methylfuran-2-yl)-(tetrahydrothiophen-2-yl)methyl]amino}-3,4-dioxo-cyclobut-1-enylamino)benzamide] |  | 135 | Half-life time [1]: 1.77 h; Half-life time [2]: 0.15 h |
| COC(=O)[C@H]1CCCN1C(=O)c1cccc(Nc2c(NC(c3ccc(C)o3)C3CCCS3)c(=O)c2=O)c1O (single isomer, unassigned) [Example 20] |  |  | half-life at 1 μM [1]: 3.52 h; Half-life time [2]: 0.283 h; IC50 (CCR4): 7.2 nM; IC50 (CXCR3): 180 nM |
| Cc1ccc(C(Nc2c(Nc3cccc(C(=O)N(C)C)c3O)c(=O)c2=O)C2(C)CCCO2)o1 (single isomer, unassigned) [Example 1 (Enantiomer 1 of diastereoisomer 2), 2-Hydroxy-N,N-dimethyl-3-(2-{[(5-methylfuran-2-yl)-(2-methyltetrahydrofuran-2-yl)methyl]amino}-3,4-dioxo-cyclobut-1-enylamino)benzamide] |  | 10000 |  |
| CN(C)C(=O)c1cccc(Nc2c(NC(c3ccccc3)C3CCCO3)c(=O)c2=O)c1O (stereo not drawn) [Example 13, 3-(3,4-dioxo-2-{[phenyl(tetrahydrofuran-2-yl)methyl]amino}cyclobut-1-enylamino)-2-hydroxy-N,N-dimethylbenzamide] | 1150 | 170 |  |
| COC(=O)[C@H]1CCCN1C(=O)c1cccc(Nc2c(NC(c3ccc(C)o3)C3CCCS3)c(=O)c2=O)c1O (single isomer, unassigned) [Example 6] |  |  | Half-life time [2]: 0.083 h; IC50 (CXCR3): 140 nM |
| Cc1ccc(C(Nc2c(Nc3cccc(C(=O)N(C)C)c3O)c(=O)c2=O)C2CCCS2)o1 (single isomer, unassigned) [Example 2 (Enantiomer 1 of diastereoisomer 2), 2-Hydroxy-N,N-dimethyl-3-(2-{[(5-methylfuran-2-yl)-(tetrahydrothiophen-2-yl)methyl]amino}-3,4-dioxo-cyclobut-1-enylamino)benzamide] |  | 15 | Half-life time [1]: 3.55 h |
| Cc1ccc(C(Nc2c(Nc3cccc(C(=O)N(C)C)c3O)c(=O)c2=O)C2CCCS2)o1 (single isomer, unassigned) [Example 2 (Enantiomer 1 of diastereoisomer 1), 2-Hydroxy-N,N-dimethyl-3-(2-{[(5-methylfuran-2-yl)-(tetrahydrothiophen-2-yl)methyl]amino}-3,4-dioxo-cyclobut-1-enylamino)benzamide] |  | 273 |  |
| Cc1ccc(C(Nc2c(Nc3cccc(C(=O)N(C)C)c3O)c(=O)c2=O)C2CCCS2)o1 (single isomer, unassigned) [Example 2 (Enantiomer 2 of diastereoisomer 2), 2-Hydroxy-N,N-dimethyl-3-(2-{[(5-methylfuran-2-yl)-(tetrahydrothiophen-2-yl)methyl]amino}-3,4-dioxo-cyclobut-1-enylamino)benzamide] |  | 134 | Half-life time [1]: 3.82 h |
| Methyl (S)-1[2-fluoro-3-(2-{[(R,S)-(5-methylfuran-2-yl)((S,R)-tetrahydrothiophen-2-yl)methyl]amino}-3,4-dioxocyclobut-1-enylamino)benzoyl]pyrrolidine-2-carboxylate [Example 3 (pair of enantiomers 1 and 2)] | 812 | 221 | Half-life time [1]: 2.35 h; Half-life time [2]: 0.05 h |
| Cc1ccc(C(Nc2c(Nc3cccc(C(=O)N(C)C)c3O)c(=O)c2=O)[C@@H]2CCCO2)o1 (stereo in doubt) [Example 12, 2-hydroxy-N,N-dimethyl-3-(2-{[(S)-(5-methylfuran-2-yl)tetrahydrofuran-2-ylmethyl]amino}-3,4-dioxocyclobut-1-enylamino)benzamide] | 483 | 83 |  |
| Cc1ccc(C(Nc2c(Nc3cccc(C(=O)N4CCC[C@H]4C(=O)OC(C)C)c3F)c(=O)c2=O)C2CCCS2)o1 (stereo partly drawn) [Example 4, Isopropyl (S)-1-[2-fluoro-3-(2-{[(5-methylfuran-2-yl)-(tetrahydrothiophen-2-yl)methyl]amino}-3,4-dioxocyclobut-1-enylamino)benzoyl]pyrrolidine-2-carboxylate] | 1890 | 109 |  |
| Cc1ccc(C(Nc2c(Nc3cccc(C(=O)N(C)C)c3O)c(=O)c2=O)[C@@H]2COC(C)(C)O2)o1 (single isomer, unassigned) [Example 14 (Diastereoisomer 2)] | 10000 | 1250 |  |
| Cc1ccc(C(Nc2c(Nc3cccc(C(=O)N(C)C)c3O)c(=O)c2=O)C2(C)CCCO2)o1 (single isomer, unassigned) [Example 1 (diastereoisomer 1), 2-hydroxy-N,N-dimethyl-3-(2-{[(5-methylfuran-2-yl)-(2-methyltetrahydrofuran-2-yl)methyl]amino}-3,4-dioxocyclobut-1-enylamino)benzamide] |  | 89 |  |
| Cc1ccc(C(Nc2c(Nc3cccc(C(=O)N(C)CC(F)(F)F)c3O)c(=O)c2=O)C2CCCS2)o1 (single isomer, unassigned) [Example 8 (Diastereoisomer 2)] | 85 | 47 |  |
| Cc1ccc(C(Nc2c(Nc3cccn(C)c3=O)c(=O)c2=O)C2CCCS2)o1 (stereo not drawn) [Example 17, 3-{[(5-methylfuran-2-yl)-(tetrahydrothiophen-2-yl)methyl]amino}-4-(1-methyl-2-oxo-1,2-dihydropyridin-3-ylamino)cyclobut-3-ene-1,2-dione] | 384 | 44 |  |
